Laboratory results: patent US12435056B2, “N-lipoic-amino acid or peptide, derivatives and their uses” (NEOSTRATA COMPANY, INC., priority 2016, dated 2025)
“Also recorded” adds a separate entry of the source.

Tests used:
[1] = tested on: normal human epidermal melanocytes; test: Cell viability / L20 toxicity assay (Cell Titer 96 Aqueous One Solution); assay type: cell-based
Protocol: (§1) L20 is a glycinamide derivative of lipoic acid and was treated on normal human epidermal melanocytes at different doses for 48 h. Doses more than 0.05% L20 appeared to have moderate toxicity (FIG. 1a). We determined the ability of L20 to inhibit melanin synthesis in melanocyte cultures. L20 was used at a non-toxic dose of 0.001% for 7 days (FIG. 1b), their treatment was carried on consecutive days. After a week of treatment, the melanin was extracted and quantified using a melanin standard curve.
Cell culture: Normal human epidermal melanocytes (Lonza, Walkersville, MA) were grown in special melanocyte media MGM4 with supplements (Lonza, Walkersville, MA). Cells were plated and treated with different doses of L20 for 48 h. L20 was initially dissolved in DMSO (100%) and serial dilution were made in media. The stock was diluted a 1000 fold, to have less than […] DMSO in final solution. Microscopic images were taken using 10× magnification. Normal human dermal fibroblasts (Lonza, Walkersville, MA) were grown in special fibroblast growth media (Lonza, Walkersville, MA). […] To test cell viability, Cell Titer 96® Aqueous One Solution Cell Proliferation Assay was used and absorbance was measured colorimetrically at 490 nm using Tecan microplate reader.

[2] = tested on: normal neonatal human epidermal melanocytes; test: Melanin reduction assay in melanocyte cultures; assay type: cell-based
Protocol: as §1
Melanin Reduction assay: Normal human epidermal melanocytes were treated with control or L20 for 7 days, and L20 was replaced on consecutive days. Cells were collected on the 7th day and maintained in Solvable (Perkin Elmer, Akron, OH) overnight at 65 degrees overnight. In parallel, melanin (Sigma, St. Louis, MO) standards were made in Solvable and treated similarly to the samples. Melanin content was then quantified colorimetrically using a Tecan microplate reader at 490 nm.

[3] = tested on: MelanoDerm keratinocyte-melanocyte co-cultures; test: MelanoDerm study: melanin content and skin lightening in 3D keratinocyte-melanocyte co-cultures; assay type: cell-based, human; conditions: for decrease of melanin content compared to control: darkly pigmented MelanoDerm
Protocol: (§2) MelanoDerms are co-culture models of keratinocytes and melanocytes and were used to test the ability of L20 as an anti-melanogenic compound. MelanoDerms were derived from a normal adult with darkly pigmented skin. These tissues were treated for two weeks on consecutive days with different doses of L20. One set of cultures were used for regression study, where it was taken off L20 after a week of treatment. Two weeks after treatment, the tissues were tested for melanin content and cell viability (FIG. 2a). […] The melanin content was assayed using a melanin standard curve.
(§3) MelanoDerm Study: MelanoDerms study was performed as per company instructions (Mattek, Ashland, MA). MelanoDerm tissues were derived from darkly pigmented skin type. The tissues were stabilized for 24 h and then treated with different doses of L20 (25 ul) in WEP modified vehicle. The MelanoDerms were treated for 2 weeks on consecutive days. Microscopic images were taken every other day. After two weeks, MTT assay was performed using Cell Titer 96® Aqueous One Solution and melanin content was assayed as mentioned in the protocol.

[4] = tested on: MelanoDerm keratinocyte-melanocyte co-cultures; test: MelanoDerm survival (MTT assay); assay type: cell-based, human; conditions: L20 0.5%, two weeks
Protocol: as §2, §3

[5] = tested on: procollagen in EpiDerm-FT fibroblast-keratinocyte co-cultures; test: Procollagen ELISA in EpiDerm-FT tissue; assay type: cell-based, human; conditions: L20 1% in WEP vehicle, 48 h, p<0.02, FIG. 3
Protocol: Dermal fibroblast plays an important role in photo-aging and skin homeostasis. We determined if L20 had any anti-aging benefit using dermal fibroblasts. Normal human EpiDerm-FT tissue was used in the study. The Epiderm-FT consists of a fully differentiated epidermal and dermal skin layers. It also has 10-15 layers of stratum corneum and also basal, spinous and granular layers. The tissues were treated with vehicle control and L20 (1%), for 48 h. The tissues were used to measure the expression of procollagen using ELISA assay. The levels of procollagen were normalized to total protein.
L20 was prepared as 1% solution in WEP vehicle consisting of water, ethanol and propylene glycol at native pH. […] The tissue samples were digested using cell lysis buffer and the expression levels of procollagen protein were determined. Procollagen was quantified using standard ELISA technique (Takara Bio Inc.).
Epiderm Study: Epiderm-FT (Mattek, Ashland, MA) was used for the study, derived from neonatal foreskin. […] The cell lysate was analyzed for procollagen using ELISA (Takara, Shiga, Japan) as per instructions and normalized to total protein.

SMILES | non-toxic dose in L20 toxicity assay ([1]; different doses, absorbance at 490 nm) | doses with moderate toxicity ([1]; human, 48 h) | melanin extracted and quantified from melanocyte cultures ([2]; L20 0.001%, 7 days, versus untreated and DMSO control, FIG. 1c) | melanin synthesis ([2]; normal neonatal human epidermal melanocytes, FIGS. 1a-c) | visual skin-lightening effect on melanoderms ([3]; 0.5% and 1%, two weeks, FIG. 2b) | regression study: reversibility of melanin inhibition after removal of L20 ([3]; 0.5% dose group, taken off L20 after one week of treatment) | microscopic observation of melanin ([3]; 24 h after the initial treatment) | decrease of melanin content compared to control ([3]; L20 0.1%, two weeks) | decrease of melanin content compared to control ([3]; L20 0.5%, two weeks) | decrease of melanin content compared to control ([3]; L20 1%, two weeks) | melanin synthesis ([3]; normal adult human Melanoderm 3D co-cultures, FIGS. 2a-d) | toxicity in MelanoDerm (cell viability) [4] | procollagen production versus vehicle control, normalized to total protein [5] | decrease of melanin content ([3]; positive control, dose not given, two weeks, MelanoDerm)
NC(=O)CNC(=O)CCCCC1CCSS1 (centres unmarked) [L20, N-lipoic glycinamide] | ≤ 0.001% | more than 0.05% | no detectable melanin; also recorded: did not have any measureable melanin | significantly blocks melanin synthesis | significant skin-lightening effect | reversible inhibition of melanin synthesis | decreased melanin; also recorded: inhibited melanin synthesis | 44% | 56% | 60% | significantly blocks melanin synthesis | non-toxic | significantly increased; also recorded: significantly induces procollagen synthesis; also recorded: induced pro-collagen | –
O=c1cc(CO)occ1O [Kojic Acid, reference compound] | – | – | – | – | – | – | – | – | – | – | – | – | – | 27%
